Laboratory results reported in PMC6005348, “Betahistine Treatment in a Cat Model of Vestibular Pathology: Pharmacokinetic and Pharmacodynamic Approaches” (Frontiers in Neurology, 2018).

Assays:
[1] = test system: unilateral vestibular neurectomized cats (UVN); experiment: Support surface measurement: recovery of static posture after unilateral vestibular neurectomy; format: in vivo, cat; details: for Normalized posture area: DAY 2 of treatment, pre-operative value = 1, control 4.6
Method: We have previously described the surgery for vestibular neurectomy ([35]). “Adult male cats weighing 4–5 kg were anesthetized with ketamine (20 mg/kg, i.m.; Rhône Poulenc, Mérieux, France), received an analgesic (Tolfenamic acid: tolfedine, 0.5 ml, i.m.; Vetoquinol, Lure, France) and were kept at physiological body temperature using a blanket. The vestibular nerve was sectioned on the left-side at the post-ganglion level in order to leave the auditory division intact after mastoidectomy, partial destruction of the bony labyrinth, and surgical exposure of the internal auditory canal. Animals were maintained under antibiotics for 7 days and analgesics for 3 days.”
One […] group (N = 4: cats 10–13) was submitted to a UVN and received post-operatively a vehicle (placebo group). Two groups of cats were treated with betahistine at the lower dose of 0.2 mg/kg/day (N = 3: cats 14–16) or at the higher dose of 2 mg/kg/day (N = 3: cats 17–19). Another group of cats received the combination of both betahistine at 0.2 mg/kg/day plus selegiline at the dose of 1 mg/kg/day (N = 3: cats 20–22).
Placebo treatment was pursued until full recovery of posture control in the control group, that is, 40 days on average. The same post-lesion period was investigated in the three experimental groups receiving betahistine or betahistine + selegiline.
We have described in previous papers how posture deficits and recovery were evaluated ([21]). The surface delimited by the four legs of the cat was measured while standing erect at rest, without walking. “Support surface is considered a good estimate of postural control since it reflects the cat's behavioral adaptation to compensate the static vestibulospinal deficits induced by the vestibular lesion. […] To quantify the support surface, cats were placed in a device with a graduated transparent floor that allowed them to be photographed from underneath. Five repeated measurements were done for each cat tested at each post-operative time, and an average was calculated for each experimental session. The support surface was measured as the surface delimited by the four legs by an image analysis system (Canvas, 9^TM, Deneba software, Miami, FL). Post-lesion data were compared to pre-lesion values by using individual references, each animal being its own control. Recovery of static posture function was assessed by the changes and development of the support surface over time. The recovery was considered as total when the support surface returned to the pre-operative value (unity, i.e., 1).”
Statistical analysis consisted of an ANOVA to test for changes at the different post-lesion days (2, 4, 6, 10, 15, 20, 25, 30, 35, 40 days) for the support surface in each group of cats. Repeated-measure analysis of variance was used to test (1) the effects of betahistine treatment (controls vs. treated cats), (2) the effects of the betahistine dose (0.2 vs. 2 mg/kg), and (3) the effects of additional selegiline on the lowest betahistine dose (0.2 mg/kg betahistine + 1 mg/kg selegiline).
ANOVA was followed by post-hoc analysis (Scheffe-test and multicomparison Fisher's test: Statview II software). Results were considered significant at P < 0.05. To distinguish between chronic and early effects of betahistine treatment a Two-way-ANOVA with day and treatment as discriminating factors was performed (GraphPad Prism 5.0). The Cohen's d-value (two means differences/largest standard deviation) was evaluated to test the size effect.

[2] = test system: monoamine oxidase a/b; details: background statement, no reference given; cited from earlier work

In the case of `CNCCc1ccccn1` [Betahistine, betahistine], the “Post-lesion day (D+) of complete recovery of posture” value ([1]; 2 mg/kg betahistine group, earlier than controls) is reported as 10, the “Cohen's d, control versus treatment (support surface)” value (“Cohen's d, control versus treatment” below) ([1]; Betahistine (0.2 mg), D+2) is reported as 0.657 and the “Cohen's d, control versus treatment” value ([1]; Betahistine (0.2 mg), D+4) is reported as 3.289. For the same molecule, the “Cohen's d, control versus treatment” value ([1]; Betahistine (0.2 mg), D+6) was 2.510, the “Cohen's d, control versus treatment” value ([1]; Betahistine (0.2 mg), D+10) was 2.708 and the “Cohen's d, control versus treatment” value ([1]; Betahistine (0.2 mg), D+15) was 4.224. For the same molecule, the “Cohen's d, control versus treatment” value ([1]; Betahistine (0.2 mg), D+20) was 2.064, the “Cohen's d, control versus treatment” value ([1]; Betahistine (0.2 mg), D+25) was 2.870 and the “Cohen's d, control versus treatment” value ([1]; Betahistine (0.2 mg), D+30) was 5.146. For the same molecule, the “Cohen's d, control versus treatment” value ([1]; Betahistine (0.2 mg), D+40) was -1.447, the “Cohen's d, control versus treatment” value ([1]; Betahistine (2 mg), D+2) was 2.662 and the “Cohen's d, control versus treatment” value ([1]; Betahistine (2 mg), D+4) was 3.616. The “Cohen's d, control versus treatment” value ([1]; Betahistine (2 mg), D+6) was 2.799, the “Cohen's d, control versus treatment” value ([1]; Betahistine (2 mg), D+10) was 5.398 and the “Cohen's d, control versus treatment” value ([1]; Betahistine (2 mg), D+15) was 7.246. For the same molecule, the “Cohen's d, control versus treatment” value ([1]; Betahistine (2 mg), D+20) was 13.857, the “Cohen's d, control versus treatment” value ([1]; Betahistine (2 mg), D+25) was 8.478 and the “Cohen's d, control versus treatment” value ([1]; Betahistine (2 mg), D+30) was 6.512. The “Cohen's d, control versus treatment” value ([1]; Betahistine (2 mg), D+40) was 3.320, the Normalized posture area ([1]; BH 0.2 mg/kg) was 3.98 and the Normalized posture area ([1]; BH 2.0 mg/kg) was 2.4. For the same molecule, the “Difference from controls with respect to complete time of recovery (ANOVA)” value ([1]; betahistine 0.2 mg/kg, P < 0.15) was “did not significantly differed”, the “Support surface versus untreated cats, Bonferroni post-test” value ([1]; betahistine 0.2 mg/kg, p < 0.01, first week only) was “significant differences at the particular D+4 and D+6 time delays” and the “Complete time of recovery of posture” value ([1]; betahistine 0.2 mg/kg, same as controls) was “around 6 weeks”. For the same molecule, the “Difference from controls with respect to complete time of recovery (ANOVA)” value ([1]; betahistine 2 mg/kg, P < 0.026) was “differed significantly” and the “Share of the drug fastly metabolized by the monoamine oxidase a/b” value [2] was 95%.
